Experimental data reported in patent publication US20250230193A1, “CYCLIC COMPOUND HAVING SELECTIVE KRAS INHIBITORY EFFECT ON HRAS AND NRAS” (CHUGAI SEIYAKU KABUSHIKI KAISHA, priority 2022, published 2025).
*1 amine or outer side, *2 acyl side, *3 side chain or, on linkers, in order; H or OH if unused. Where a SMILES comes first, the peptide text is derived from it. Bridges are numbered along the chain shown (N, C = ends). [ ]: non-standard residue; d: D form. The star is where a group is joined. hPhe(3-Cl-4-CF3) = N[C@@H](CCc1ccc(C(F)(F)F)c(Cl)c1)C(=O)O; NPrPhe(4-CF3) = CCCN[C@@H](Cc1ccc(C(F)(F)F)cc1)C(=O)O; X39 = Cc1ccc(C[C@@H](C(=O)[*:2])N(CC(C)C)[*:1])cc1; X49 = Cc1ccc(C[C@@H](C(=O)[*:2])N(CC2CC2)[*:1])cc1; NPrPhe(4-Me) = CCCN[C@@H](Cc1ccc(C)cc1)C(=O)O; X5 = CCCN([C@H](C(=O)[*:2])C1CCCC1)[*:1]; NMeGly(cPent) = CN[C@H](C(=O)O)C1CCCC1; NMeD = CN[C@@H](CC(=O)O)C(=O)O; NMeL = CN[C@@H](CC(C)C)C(=O)O; Morpholide = C1CN(*)CCO1; NMeA = CN[C@@H](C)C(=O)O; Ac5c = NC1(C(=O)O)CCCC1; Aze = O=C(O)[C@@H]1CCN1; NEtG = CCNCC(=O)O; Sar = CNCC(=O)O

Columns and labels:
[1] = target: GDP-bound HRAS wild-type protein (Homo sapiens, UniProt P01112); assay: Binding to HRAS by surface plasmon resonance (SPR), Single Cycle Kinetics; conditions: KD ratio HRAS/KRAS, SPR
[2] = target: GDP-bound NRAS wild-type protein (Homo sapiens, UniProt P01111); assay: Binding to NRAS by surface plasmon resonance (SPR), Single Cycle Kinetics; conditions: KD ratio NRAS/KRAS, SPR
Chain of GDP-bound NRAS wild-type protein (P01111 whole entry): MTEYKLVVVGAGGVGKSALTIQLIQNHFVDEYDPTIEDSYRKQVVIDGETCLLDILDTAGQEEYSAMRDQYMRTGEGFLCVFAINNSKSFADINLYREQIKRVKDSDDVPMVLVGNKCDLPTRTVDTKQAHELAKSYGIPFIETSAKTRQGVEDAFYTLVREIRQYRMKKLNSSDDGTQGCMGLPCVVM

Chain of GDP-bound HRAS wild-type protein (P01112 whole entry): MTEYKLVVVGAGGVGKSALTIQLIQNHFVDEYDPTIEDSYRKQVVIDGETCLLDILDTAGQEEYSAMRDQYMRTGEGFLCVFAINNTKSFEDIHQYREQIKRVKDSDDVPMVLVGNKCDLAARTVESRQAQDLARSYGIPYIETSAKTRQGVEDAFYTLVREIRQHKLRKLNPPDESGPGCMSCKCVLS

| Compound | HRAS/KRAS (ratio of KD for GDP-bound HRAS wild-type to KD for KRAS) [1] | NRAS/KRAS (ratio of KD for GDP-bound NRAS wild-type to KD for KRAS) [2] |
| --- | --- | --- |
| CC[C@H](C)[C@@H]1NC(=O)[C@H](CC(C)C)N(C)C(=O)C[C@@H](C(=O)N2CCOCC2)N(C)C(=O)[C@H](C2CCCC2)N(C)C(=O)C2(CCCC2)NC(=O)[C@@H]2CCCN2C(=O)[C@H](CCc2ccc(C(F)(F)F)c(Cl)c2)NC(=O)CN(C)C(=O)[C@H](Cc2ccc(C)cc2)N(CC(C)C)C(=O)[C@@H]2CCN2C(=O)[C@H](C)N(C)C1=O [PP0056] ([NMeL]I[NMeA][Aze][X39][Sar][hPhe(3-Cl-4-CF3)]P[Ac5c][NMeGly(cPent)][NMeD]-Morpholide; lactam N-11) | B (a compound having 3 or more and less than 10 is denoted as B) | C (A compound having a KD ratio of 0.1 or more and less than 3 is denoted as C) |
| CC[C@H](C)[C@@H]1NC(=O)[C@H](CC(C)C)N(C)C(=O)C[C@@H](C(=O)N2CCOCC2)N(C)C(=O)[C@H](C2CCCC2)N(C)C(=O)C2(CCCC2)NC(=O)[C@@H]2CCCN2C(=O)[C@H](CCc2ccc(C(F)(F)F)c(Cl)c2)NC(=O)CN(C)C(=O)[C@H](Cc2ccc(C)cc2)N(CC2CC2)C(=O)[C@@H]2CCN2C(=O)[C@H](C)N(C)C1=O [PP0057] ([NMeL]I[NMeA][Aze][X49][Sar][hPhe(3-Cl-4-CF3)]P[Ac5c][NMeGly(cPent)][NMeD]-Morpholide; lactam N-11) | B (a compound having 3 or more and less than 10 is denoted as B) | C (A compound having a KD ratio of 0.1 or more and less than 3 is denoted as C) |
| CCCN1C(=O)[C@@H]2CCN2C(=O)[C@H](C)N(C)C(=O)[C@H]([C@@H](C)CC)NC(=O)[C@H](CC(C)C)N(C)C(=O)C[C@@H](C(=O)N2CCOCC2)N(C)C(=O)[C@H](C2CCCC2)N(C)C(=O)C2(CCCC2)NC(=O)[C@@H]2CCCN2C(=O)[C@H](CCc2ccc(C(F)(F)F)c(Cl)c2)NC(=O)CN(CC)C(=O)[C@@H]1Cc1ccc(C)cc1 [PP0058] ([NMeL]I[NMeA][Aze][NPrPhe(4-Me)][NEtG][hPhe(3-Cl-4-CF3)]P[Ac5c][NMeGly(cPent)][NMeD]-Morpholide; lactam N-11) | C (A compound having a KD ratio of 0.1 or more and less than 3 is denoted as C) | C (A compound having a KD ratio of 0.1 or more and less than 3 is denoted as C) |
| CCCN1C(=O)CN(C)C(=O)CN(C)C(=O)[C@H]([C@@H](C)CC)NC(=O)[C@H](CC(C)C)N(C)C(=O)C[C@@H](C(=O)N2CCOCC2)N(C)C(=O)[C@H](C2CCCC2)N(C)C(=O)C2(CCCC2)NC(=O)[C@@H]2CCCN2C(=O)[C@H](CCc2ccc(C(F)(F)F)c(Cl)c2)NC(=O)CN(C)C(=O)[C@@H]1Cc1ccc(C)cc1 [PP0059] ([NMeL]I[Sar][Sar][NPrPhe(4-Me)][Sar][hPhe(3-Cl-4-CF3)]P[Ac5c][NMeGly(cPent)][NMeD]-Morpholide; lactam N-11) | C (A compound having a KD ratio of 0.1 or more and less than 3 is denoted as C) | B (a compound having 3 or more and less than 10 is denoted as B) |
| CCCN1C(=O)CN(C)C(=O)CN(C)C(=O)[C@H]([C@@H](C)CC)NC(=O)[C@H](CC(C)C)N(C)C(=O)C[C@@H](C(=O)N2CCOCC2)N(C)C(=O)[C@H](C2CCCC2)N(C)C(=O)C2(CCCC2)NC(=O)[C@@H]2CCCN2C(=O)[C@H](CCc2ccc(C(F)(F)F)c(Cl)c2)NC(=O)CN(C)C(=O)[C@@H]1Cc1ccc(C(F)(F)F)cc1 [PP0060] ([NMeL]I[Sar][Sar][NPrPhe(4-CF3)][Sar][hPhe(3-Cl-4-CF3)]P[Ac5c][NMeGly(cPent)][NMeD]-Morpholide; lactam N-11) | B (a compound having 3 or more and less than 10 is denoted as B) | B (a compound having 3 or more and less than 10 is denoted as B) |
| CCCN1C(=O)CN(C)C(=O)CN(C)C(=O)[C@H]([C@@H](C)CC)NC(=O)[C@H](CC(C)C)N(C)C(=O)C[C@@H](C(=O)N2CCOCC2)N(C)C(=O)[C@H](C2CCCC2)N(C)C(=O)C2(CCCC2)NC(=O)[C@@H]2CCCN2C(=O)[C@H](CCc2ccc(C(F)(F)F)c(Cl)c2)NC(=O)CN(C)C(=O)[C@@H]1C1CCCC1 [PP0061] ([NMeL]I[Sar][Sar][X5][Sar][hPhe(3-Cl-4-CF3)]P[Ac5c][NMeGly(cPent)][NMeD]-Morpholide; lactam N-11) | C (A compound having a KD ratio of 0.1 or more and less than 3 is denoted as C) | B (a compound having 3 or more and less than 10 is denoted as B) |
